Results taken from patent US9555071B2, “Methods and compositions for the treatment of axonal and neuronal degeneration” (priority 2012, dated 2017).
One block for each molecule: values may come before it.

How the values were obtained:
[1] = system: dorsal root ganglion (DRG) explants; test: Axonal protection of DRG explants exposed to vincristine; format: cell-based
Experimental: Panels A to D are representative images of dorsal root ganglion (DRG) explants after exposure to 50 nM vincristine at 0 and 60 hours. Explants in panels A and B were treated with 50 nM vincristine and 0.5 μg/ml peptide while those in panels C and D were treated with vincristine alone.
DRG explants were exposed to 50 nM vincristine. Explants in panels A and B were treated with 50 nM vincristine and 0.5 μg/ml RGD peptide while those in panels C and D were treated with vincristine alone. […] The cyclo-GRGDSP (SEQ ID NO:3) peptide potently promoted axonal survival in cell culture with EC50=0.5 μM (FIG. 1.E).

[2] = Bioavailability and bio-distribution by LC-QTOF mass spectrometer; format: in vivo, C57B1 mice; settings: intraperitoneal 1 μg/g
Experimental: In contrast, there was no decrease with the co-administration of the peptide (n=10 mice).
To test the bioavailability and bio-distribution of the RGD peptides in vivo, C57B1 mice were given intraperitoneal injection of 1 μg/g weight of cylco-GRGDSP (SEQ ID NO:3) in normal saline (1 mg/ml). The mice were sacrificed at 30, 60, 120, and 240 minutes. Blood, brain, skin, muscle, and tibial and sciatic nerves were collected. The presence of the peptide was detected using LC-QTOF mass spectrometer.

[3] = system: acrylamide intoxicated MAG−/− mice; test: Acrylamide-induced axonal degeneration in MAG−/− mice; format: in vivo; settings: for severe gait instability / axonal swelling, beading and segmentation of Aβ fibers in the skin / neuromuscular junction morphology: daily intraperitoneal injection; for severe gait instability: acrylamide for 10 days; for axonal swelling, beading and segmentation of Aβ fibers in the skin / neuromuscular junction morphology: acrylamide, FIG. 2E; for change in amplitudes of CMAP: electrophysiological testing, FIG. 2D
Source text: Furthermore, the RGD peptides can also prevent axonal and/or neuronal degeneration in vivo. See Example 3. Administration of acrylamide, a well characterized toxin, causes axonal “dying back” or degeneration without lymphocytic inflammatory response (Schaumburg et al., 1974, Ko et al., 2000; Ewaleifoh et al, 2012) in wild-type and MAG knockout mice. […] The acrylamide treated MAG−/− mice developed more rapid and severe motor impairment. Most mice fell off the rod even during pretraining and had profound decline in the retention time on the Rotarod (FIG. 2B). There was a decrease in amplitudes of CMAP (FIG. 2.D). […] The neuromuscular junction morphology was normal. On gross observation, there was only mild gait unsteadiness. […] Thus, the RGD peptide was able to prevent significant axonal degeneration that is typically seen in MAG−/− mice treated with acrylamide.
To test that RGD peptides may prevent axonal degeneration in a murine model, acrylamide, a well characterized toxin causing axonal “dying back” or degeneration without lymphocytic inflammatory response (Schaumburg et al., 1974, Ko et al., 2000, Ewaleifoh et at, 2012), was administered to wild-type and MAG−/− mice. When MAG knockout mice at 6 weeks of age were exposed to acrylamide for 10 days, there was markedly impaired gait with marked sensory ataxia and spreading of the toes of the hind limbs. The acrylamide treated MAG−/− mice developed more rapid and severe motor impairment. Most mice fell off the rod even during pretraining and had profound decline in the retention time on the Rotarod (FIG. 2B). There was a 68% decrease in amplitudes of CMAP (FIG. 2.D).
The neuromuscular junction morphology was normal (FIG. 2E). On gross observation, there was only mild gait unsteadiness.

Trembler J mice = test: Trembler J mice, model of Charcot-Marie-Tooth type 1; format: in vivo; settings: intravenous or intraperitoneal daily injection
Source text: (§1) Similar findings were also seen in other murine models such as Trembler J mice, a murine model of Charcot-Marie-Tooth type 1, MOG-EAE mice, model of multiple sclerosis with significant axonal loss, and Streptozotocin-induced diabetic mouse model. […] Application of the RGD peptide allowed the diseased mice to have a normal or near normal phenotype similar to untreated wild-type animals.
as §1, with “including (1)” for “such as”, “1, (2)” for “1,”, “and (3)” for “and”, “The” for “Application of the”

MOG-EAE mice = test: MOG-EAE mice, model of multiple sclerosis; format: in vivo; settings: intravenous or intraperitoneal daily injection
Source text: as §1
as §1, with “including (1)” for “such as”, “1, (2)” for “1,”, “and (3)” for “and”, “The” for “Application of the”

[4] = system: Streptozotocin-induced diabetic mouse model; test: Streptozotocin-induced diabetic mouse model; format: in vivo; settings: intravenous or intraperitoneal daily injection
Source text: as §1
as §1, with “including (1)” for “such as”, “1, (2)” for “1,”, “and (3)” for “and”, “The” for “Application of the”

[5] = system: postnatal (P4-5) dorsal root ganglion (DRG) and cerebrocortical neurons; test: Prevention of axonal/neuronal death in cultured neurons; format: cell-based; settings: in vitro; peptides in linear as well as cyclo forms; FIG. 1
Experimental: Several small RGD peptides containing RGD sequence were generated and their axonal protective effect was tested. The RGD peptides included RGDYK (SEQ ID NO:1), GRGDS (SEQ ID NO:2), FRGDLG (SEQ ID NO:4), FRGDSP (SEQ ID NO:9), IRGDSP (SEQ ID NO:15), RRGDQT (SEQ ID NO:5), KRGDNF (SEQ ID NO:6), PRGDLT (SEQ ID NO:7) in linear as well as cyclo forms.

β1-integrin receptor = test: Blocking of the peptide's axonal protection by integrin antagonists; format: cell-based
Source text: The RGD motif is known to bind to the integrin receptor. The addition of the peptides of the present invention to primary DRG neuronal cultures induced rapid phosphorylation of neurofilament (NFH), change in NAD synthase nicotinamide mononucleotide adenylyltransferase (NMNAT) expression, and focal adhesion kinase (FAK), an integrin-linked kinase, at the tyrosine 397 residue (Y397), which are indicative of integrin binding to a ligand. Co-administration of echistatin or specific function-blocking antibody to β1-integrin abolished the axonal/neuronal protective ability of the peptide. See Example 1.
The protective effect of the […] peptides was dependent upon their ability to bind to β1-integrin receptor. […] Co-administration of specific function-blocking antibody to β1-integrin abolished the axonal protective ability of the GRGDSP (SEQ ID NO:3) peptide.

axons = settings: insults such as vincristine, acrylamide, inflammatory mediators; Nguyen et al., 2009; cited from earlier work
[6] = sampled 30, 60, 120, 240 minutes

Molecule: N=C(N)NCCC[C@@H]1NC(=O)CNC(=O)[C@@H]2CCCN2C(=O)[C@H](CO)NC(=O)[C@H](CC(=O)O)NC(=O)CNC1=O [cyclo-GRGDSP]
EC50 ([1]; DRG explants exposed to 50 nM vincristine, FIG. 1E, read-out: EC50, axonal survival in cell culture): 500 nM
neuronal death (TUNEL-positive cells) ([1]; associated with axonal protection, FIG. 1F): marked decreased in neuronal death
peptide detected in sciatic nerves ([2]; all time points up to 4 hours, FIG. 2A): detected in high concentration
peptide detected in plasma [2, 6]: detected
peptide levels in brain [2, 6]: only evident in the first hour
severe gait instability [3]: largely prevented
axonal swelling, beading and segmentation of Aβ fibers in the skin [3]: largely prevented
neuromuscular junction morphology [3]: normal
change in amplitudes of CMAP [3]: little to no change
axonal/neuronal degeneration and behavioral deficits (Trembler J mice): almost completely abolished
axonal/neuronal degeneration and behavioral deficits (MOG-EAE mice): almost completely abolished
axonal/neuronal degeneration and behavioral deficits [4]: almost completely abolished

Molecule: KRGDNF: RGD peptide, amino acid sequence KRGDNF (Synthetic Peptide, Linear or Cyclo)
stabilize the axon and prevent axonal/neuronal death [5]: sufficient to stabilize the axon and to prevent axonal/neuronal death

Molecule: cyclo-FRGDLP: cyclic RGD peptide of sequence FRGDLP (SEQ ID NO:8) (cyclic; Synthetic Peptide, Linear or Cyclo)
severe gait instability [3]: largely prevented
axonal swelling, beading and segmentation of Aβ fibers in the skin [3]: largely prevented
neuromuscular junction morphology [3]: normal
change in amplitudes of CMAP [3]: little to no change

Molecule: IRGDSP: RGD peptide, amino acid sequence IRGDSP (Synthetic Peptide, Linear or Cyclo)
stabilize the axon and prevent axonal/neuronal death [5]: sufficient to stabilize the axon and to prevent axonal/neuronal death

Molecule: GRGDS: RGD peptide, amino acid sequence GRGDS (Synthetic Peptide, Linear or Cyclo)
stabilize the axon and prevent axonal/neuronal death [5]: sufficient to stabilize the axon and to prevent axonal/neuronal death

Molecule: cyclo-FRGDSP: cyclic RGD peptide of sequence FRGDSP (SEQ ID NO:9) (cyclic; Synthetic Peptide, Linear or Cyclo)
severe gait instability [3]: largely prevented
axonal swelling, beading and segmentation of Aβ fibers in the skin [3]: largely prevented
neuromuscular junction morphology [3]: normal
change in amplitudes of CMAP [3]: little to no change

Molecule: FRGDLG: RGD peptide, amino acid sequence FRGDLG (Synthetic Peptide, Linear or Cyclo)
stabilize the axon and prevent axonal/neuronal death [5]: sufficient to stabilize the axon and to prevent axonal/neuronal death

Molecule: PRGDLT: RGD peptide, amino acid sequence PRGDLT (Synthetic Peptide, Linear or Cyclo)
stabilize the axon and prevent axonal/neuronal death [5]: sufficient to stabilize the axon and to prevent axonal/neuronal death

Molecule: RGDYK: RGD peptide, amino acid sequence RGDYK (Synthetic Peptide, Linear or Cyclo)
stabilize the axon and prevent axonal/neuronal death [5]: sufficient to stabilize the axon and to prevent axonal/neuronal death

axonal protective ability of the peptide (β1-integrin receptor; co-administration of specific function-blocking antibody to β1-integrin): abolished
Molecule: GRGDSP: RGD peptide, amino acid sequence GRGDSP

Molecule: RRGDQT: RGD peptide, amino acid sequence RRGDQT (Synthetic Peptide, Linear or Cyclo)
stabilize the axon and prevent axonal/neuronal death [5]: sufficient to stabilize the axon and to prevent axonal/neuronal death

Molecule: cyclo-IRGDSP: cyclic RGD peptide of sequence IRGDSP (SEQ ID NO:15) (cyclic; Synthetic Peptide, Linear or Cyclo)
severe gait instability [3]: largely prevented
axonal swelling, beading and segmentation of Aβ fibers in the skin [3]: largely prevented
neuromuscular junction morphology [3]: normal
change in amplitudes of CMAP [3]: little to no change
axonal/neuronal degeneration and behavioral deficits (Trembler J mice): almost completely abolished
axonal/neuronal degeneration and behavioral deficits (MOG-EAE mice): almost completely abolished
axonal/neuronal degeneration and behavioral deficits [4]: almost completely abolished

Molecule: echistatin [reference compound]
effect of co-administered blocker on axonal/neuronal protective ability of the peptide (β1-integrin receptor; co-administration with RGD peptide): abolished

Molecule: FRGDSP: RGD peptide, amino acid sequence FRGDSP (Synthetic Peptide, Linear or Cyclo)
stabilize the axon and prevent axonal/neuronal death [5]: sufficient to stabilize the axon and to prevent axonal/neuronal death

B1: MAG: transmembrane glycoprotein containing five Ig-like domains; adhesion molecule of the immunoglobin superfamily (protein, UniProt P20916 20-626, looked up)
Myelin-associated glycoprotein: GHWGAWMPSSISAFEGTCVSIPCRFDFPDELRPAVVHGVWYFNSPYPKNYPPVVFKSRTQVVHESFQGRSRLLGDLGLRNCTLLLSNVSPELGGKYYFRGDLGGYNQYTFSEHSVLDIVNTPNIVVPPEVVAGTEVEVSCMVPDNCPELRPELSWLGHEGLGEPAVLGRLREDEGTWVQVSLLHFVPTREANGHRLGCQASFPNTTLQFEGYASMDVKYPPVIVEMNSSVEAIEGSHVSLLCGADSNPPPLLTWMRDGTVLREAVAESLLLELEEVTPAEDGVYACLAENAYGQDNRTVGLSVMYAPWKPTVNGTMVAVEGETVSILCSTQSNPDPILTIFKEKQILSTVIYESELQLELPAVSPEDDGEYWCVAENQYGQRATAFNLSVEFAPVLLLESHCAAARDTVQCLCVVKSNPEPSVAFELPSRNVTVNESEREFVYSERSGLVLTSILTLRGQAQAPPRVICTARNLYGAKSLELPFQGAHRLMWAKIGPVGAVVAFAILIAIVCYITQTRRKKNVTESPSFSAGDNPPVLFSSDFRISGAPEKYESERRLGSERRLLGLRGEPPELDLSYSHSDLGKRPTKDSYTLTEELAEYAEIRVK
axonal survival / prevention of axonal degeneration caused by vincristine (axons): promotes axonal survival
